# Assay results as given in US5091522A, “Retinoic esters of D-desosamine, process for their preparation and their use in human or veterinary medicine and in cosmetic compositions” (L'Oreal, priority 1989, dated 1992).
# Read-outs that look alike come from different tables or passages of the source.
# Legend:
# Type in all cases: cell-based
# [1] = system: Propionibacterium acnes P37; experiment: Minimum inhibiting concentration (MIC) by dilution method, P. acnes strain P37
# Text: (§1) The activity of retinoic esters of D-desosamines has been studied by the dilution method to determine the minimum inhibiting concentration (MIC). This method is described and employed by G. A. Denys et al, Antimicrobial Agents and Chemotherapy (1983) 23, 335-337 and J. J. Leyden et al, J.Am.Acad. Dermatol. (1983) 8 (1) 41-5, by using as the Propionibacterium acnes strain, strain P37 furnished by Cunliffe and Holland.
# (§2) The minimum concentration (MIC), expressed in μg/ml of the retinoic esters of D-desosamine tested vis-a-vis strains of Propionibacterium acnes P37, P37 E⊕ and P37 E⊖ and staphilococcus epidermis ATCC 12228, is reported in the following table: […]
# [2] = system: Propionibacterium acnes P37 E⊕; experiment: Minimum inhibiting concentration (MIC) by dilution method, P. acnes P37 E⊕ (erythromycin-sensitive population); conditions: Cutibacterium acnes
# Text: as §1
# (§3) On the other hand, after 8 successive sub-cultures in the same medium (RCM* 19/20, DMSO 1/20 by volume) with the view of obtaining a progressive stabilization of this strain in this medium, a progressive resistance to erythromycin was manifested in the following form:
# (§4) after spreading a standardized inoculum (DO=1.8 at 450 nm) on a gelose medium (RCM+furazolidone), in a Petri dish, a 9 mm diameter disc is deposited at its center. On the disc, 50 μg of erythromycin (in solution in DMSO) are deposited.
# (§5) The two types of colonies are then retained by stripping of the gelose medium (sterilized platinum loop):
# (2) at 1 cm beyond the periphery of the inhibition zone, there are stripped off strains called P37 E⊕.
# (§6) After isolation and culturing, the P37 E⊕ and P37 E⊖ strains effectively show very different sensitivities to erythromycin as illustrated by the following MIC values:
# as §2
# [3] = system: Propionibacterium acnes P37 E⊖; experiment: Minimum inhibiting concentration (MIC) by dilution method, P. acnes P37 E⊖ (erythromycin-resistant population); conditions: Cutibacterium acnes, P37E.CRCLBAR.
# Text: as §1, §3, §4, §5
# (1) at the interior of the inhibition zone there are stripped off strains, called P37 E⊖ by reason of their apparent resistance to erythromycin.
# as §6, §2
# [4] = system: staphilococcus epidermis ATCC 12228; experiment: Minimum inhibiting concentration (MIC) by dilution method, staphilococcus epidermis ATCC 12228; conditions: read-out: minimum concentration (MIC), TABLE I
# Text: as §1, §2
# [5] = system: Propionibacterium acnes P37; experiment: IC 50 (50% survivors among the population at constant culturing time), P37; conditions: Cutibacterium acnes, P37, read-out: IC 50 (inhibiting concentration at 50%)
# Text: (§7) This phenomenon is confirmed by the study of the IC 50 (inhibiting concentration at 50% which represents the concentration of erythromycin where, at a constant culturing time, 50% survivors among the population are found
# [6] = system: Propionibacterium acnes P37 E⊕; experiment: IC 50 (50% survivors among the population at constant culturing time), P37 E⊕; conditions: Cutibacterium acnes, read-out: IC 50 (inhibiting concentration at 50%)
# Text: as §7
# [7] = system: Propionibacterium acnes P37 E⊖; experiment: IC 50 (50% survivors among the population at constant culturing time), P37 E⊖; conditions: Cutibacterium acnes, P37E.CRCLBAR., read-out: IC 50 (inhibiting concentration at 50%)
# Text: as §7
# [8] = system: Propionibacterium acnes strain P37; experiment: Disc inhibition zone on gelose medium; conditions: Cutibacterium acnes, P37, 144 h; 50 μg erythromycin on 9 mm disc; 6 days at 36 C, anaerobic; RCM+furazolidone; after 8 sub-cultures; read-out: inhibition zone of the growth of the strain (total diameter)
# Procedure: as §3, §4
# After 6 days at 36.C in an anaerobic medium (GAS-PAK, B.B.L. system) an inhibition zone of the growth of the strain is clearly visible (total diameter =42 mm), the majority of the colonies being situated at the periphery of the inhibition zone.
# [9] = Cutibacterium acnes, P37; read-out: minimum concentration (MIC), TABLE I
# [10] = P37E.SYM., P37 E⊕, read-out: minimum concentration (MIC), TABLE I
# [11] = read-out: minimum concentration (MIC), TABLE I
# [12] = Cutibacterium acnes, P37, read-out: minimum concentration (MIC), TABLE I
Compound,"MIC [1, 9]","MIC [2, 10]","MIC [3, 11]",MIC ([4]; ATCC 12228),other results
"CO[C@H]1O[C@H](COC(=O)\C=C(C)/C=C/C=C(C)/C=C/C2=C(C)CCCC2(C)C)[C@@H](O)[C@H](O)[C@H]1O [O-retinoyl (13 cis)-6-O-methyl-1-α-D-glucopyrannose, reference compound]",> 45 mg/L,> 45 mg/L,> 45 mg/L,> 45 mg/L,–
"CCCCOC1O[C@H](C)C[C@H](N(C)C)[C@H]1OC(=O)/C=C(C)/C=C/C=C(C)/C=C/c1c(C)cc(OC)c(C)c1C (stereo partly drawn) [Compound 5, O-etretinoyl (all trans)-2-O-butyl-1-α,β-D-desosamine]",3 mg/L,6 mg/L,6 mg/L,6 mg/L,–
"CCCCOC1O[C@H](C)C[C@H](N(C)C)[C@H]1O (stereo partly drawn) [O-butyl-1-α,β-D-desosamine, reference compound]",> 100 mg/L,> 100 mg/L,> 110 mg/L,> 100 mg/L,–
CC[C@H]1OC(=O)[C@H](C)[C@@H](O[C@H]2C[C@@](C)(OC)[C@@H](O)[C@H](C)O2)[C@H](C)[C@@H](O[C@@H]2O[C@H](C)C[C@H](N(C)C)[C@H]2O)[C@](C)(O)C[C@@H](C)C(=O)[C@H](C)[C@@H](O)[C@]1(C)O [erythromycin],–,–,–,–,"MIC ([1]; Cutibacterium acnes, P37): 0.78 mg/L; MIC [2]: 0.78 mg/L; MIC [3]: 50 mg/L; IC50 [5]: 50 mg/L; IC50 [6]: 5 mg/L; IC50 [7]: 100 mg/L; zone of inhibition at 50 µg/disc [8]: 42 mm"
"CCCCOC1O[C@H](C)C[C@H](N(C)C)[C@H]1OC(=O)/C=C(C)/C=C/C=C(C)/C=C/C1=C(C)CCCC1(C)C (stereo partly drawn) [Compound 2, O-retinoyl (all trans)-2-O-butyl-1-α-β-D-desosamine]",15 mg/L,25 mg/L,9 mg/L,3.5 mg/L,–
"CCCCOC1O[C@H](C)C[C@H](N(C)C)[C@H]1OC(=O)\C=C(C)/C=C/C=C(C)/C=C/C1=C(C)CCCC1(C)C (stereo partly drawn) [Compound 1, O-retinoyl (13 cis)-2-O-butyl-1-α,β-D-desosamine]",–,21 mg/L,10.5 mg/L,18.5 mg/L,"MIC [1, 12]: 10.5 mg/L"
"CCCCO[C@H]1O[C@H](C)C[C@H](N(C)C)[C@H]1OC(=O)/C=C(C)/C=C/C=C(C)/C=C/c1c(C)cc(OC)c(C)c1C [Compound 6, O-etretinoyl (all trans)-2-O-butyl-1-α-D-desosamine]",19 mg/L,4.3 mg/L,2.1 mg/L,1.5 mg/L,–
"CCCCO[C@@H]1O[C@H](C)C[C@H](N(C)C)[C@H]1OC(=O)/C=C(C)/C=C/C=C(C)/C=C/c1c(C)cc(OC)c(C)c1C [Compound 7, O-etretinoyl (all trans)-2-O-butyl-1-β-D-desosamine]",5.2 mg/L,40 mg/L,14.5 mg/L,2.3 mg/L,–
"C[C@@H]1C[C@H](N(C)C)[C@@H](O)C(O)O1 (stereo partly drawn) [α,β-D-desosamine, reference compound]",–,–,> 70 mg/L,–,"MIC [1, 12]: > 50 mg/L; MIC [2, 11]: > 70 mg/L; MIC [4]: > 50 mg/L"
